Data on four compounds can be found in ChEMBL document CHEMBL1151299, “Flavonoids with anti-cataract activity from Brickellia arguta” (J Nat Prod, 1984).

Assay [1] addresses Aldo-keto reductase family 1 member B1 (Rattus norvegicus) (UniProt P07943). The experiment in a line: Inhibition of rat lens aldose reductase at 10 uM.
The target is the same in assay [2]. As to the kind of experiment: Inhibition of rat lens aldose reductase at 1 uM.
The target is the same in assay [3]. As to the kind of experiment: Inhibition of rat lens aldose reductase at 0.1 uM.

Turning to `COc1c(O)cc2oc(-c3ccc(O)cc3)c(O[C@@H]3O[C@H](CO[C@@H]4O[C@@H](C)[C@H](O)[C@@H](O)[C@H]4O)[C@H](O)[C@H](O)[C@H]3O)c(=O)c2c1O`, the inhibition in assay [1] came out at 9%; in assay [2] it was 32%; in assay [3], 63%.

Consider `O=C(O)CN1C(=O)c2cccc3cccc(c23)C1=O`, for which the inhibition in assay [1] came out at 0%; in assay [2], 40%.

Take `COc1c(O)cc2oc(-c3ccc(O)c(O)c3)c(O[C@@H]3O[C@H](CO)[C@H](O)[C@H](O)[C@H]3O)c(=O)c2c1O`: the values for the inhibition in assay [1], in assay [2] and in assay [3] were 7%, 38% and 84%, respectively.

With `COc1c(O)cc2oc(-c3ccc(O)c(O)c3)c(O[C@@H]3O[C@H](CO[C@@H]4O[C@@H](C)[C@H](O)[C@@H](O)[C@H]4O)[C@H](O)[C@H](O)[C@H]3O)c(=O)c2c1O`, the inhibition was determined as 11% in assay [1], 33% in assay [2] and 86% in assay [3].
